Measurements: patent publication US4411898A, “7-[2-Oxyimino-2-(2-aminothiazol-4-yl)acetamido]-3-(1-carboxya lkyl-1H-tetrazol-5-yl)thiomethyl-3-cephem-4-carboxylic acid compounds” (Fujisawa Pharmaceutical Co., Ltd., priority 1977, dated 1983)
≈ marks a conversion by molar mass, not a printed value. Counter-ions that a name gives are not always drawn.

Assays:
Experiment in all cases: In vitro antibacterial activity, two-fold agar-plate dilution method
Assay type in all cases: cell-based
Conditions in all cases: HI-agar, 37° C., 20 hours, read-out: minimal inhibitory concentration (MIC)
Proteus vulgaris 2 = system: Proteus vulgaris 2
Protocol: (§1) In vitro antibacterial activity was determined by the two-fold agar-plate dilution method as described below.
(§2) One loopful of an overnight culture of each test strain in Trypticase-soy broth (10^8 viable cells per ml.) was streaked on heart infusion agar (HI-agar) containing graded concentrations of test compounds, and minimal inhibitory concentration (MIC) was expressed in terms of μg/ml. after incubation at 37° C. for 20 hours.

[1] = system: Staphylococcus aureus 209P JC-1
Protocol: as §1, §2

Escherichia coli 324 = system: Escherichia coli 324
Protocol: as §1, §2

Proteus mirabilis 525 = system: Proteus mirabilis 525
Protocol: as §1, §2

Klebsiella aerogenes 417 = system: Klebsiella aerogenes 417
Protocol: as §1, §2

| MIC (Proteus vulgaris 2) [µg/mL] | MIC [1] [µg/mL] | MIC (Escherichia coli 324) [µg/mL] | MIC (Proteus mirabilis 525) [µg/mL] | MIC (Klebsiella aerogenes 417) [µg/mL] | Structure (SMILES) |
| --- | --- | --- | --- | --- | --- |
| 0.78 | 12.5 |  |  |  | C=CCON=C(C(=O)NC1C(=O)N2C(C(=O)O)=C(CSc3nnnn3CC(=O)O)CSC12)c1csc(N)n1 (stereo not drawn) [Test Compound (2), 7-[2-Allyloxyimino-2-(2-amino-1,3-thiazol-4-yl)acetamido]-3-(1-carboxymethyl-1H-tetrazol-5-yl)thiomethyl-3-cephem-4-carboxylic acid hydrochloride (syn isomer)] |
| 0.39 (≈ 0.668 µM) | 12.5 (≈ 21.4 µM) |  |  |  | CCCON=C(C(=O)NC1C(=O)N2C(C(=O)O)=C(CSc3nnnn3CC(=O)O)CSC12)c1csc(N)n1 (stereo not drawn) [Test Compound (1), 7-[2-n-Propoxyimino-2-(2-amino-1,3-thiazol-4-yl)acetamido]-3-(1-carboxymethyl-1H-tetrazol-5-yl)thiomethyl-3-cephem-4-carboxylic acid (syn isomer)] |
| 0.025 (≈ 0.0431 µM) | 12.5 (≈ 21.6 µM) |  |  |  | C#CCON=C(C(=O)NC1C(=O)N2C(C(=O)O)=C(CSc3nnnn3CC(=O)O)CSC12)c1csc(N)n1 (stereo not drawn) [Test Compound (3), 7-[2-(2-Propynyloxyimino)-2-(2-amino-1,3-thiazol-4-yl)acetamido]-3-(1-carboxymethyl-1H-tetrazol-5-yl)thiomethyl-3-cephem-4-carboxylic acid (syn isomer)] |
|  |  | 0.2 (≈ 0.369 µM) | 0.2 (≈ 0.369 µM) | 0.39 (≈ 0.72 µM) | CON=C(C(=O)NC1C(=O)N2C(C(=O)O)=C(CSc3nnnn3CC(=O)O)CSC12)c1csnn1 (stereo not drawn) [Test Compound (4), 7-[2-Methoxyimino-2-(1,2,3-thiadiazol-4-yl)acetamido]-3-(1-carboxymethyl-1H-tetrazol-5-yl)thiomethyl-3-cephem-4-carboxylic acid (syn isomer)] |
